Experimental data from US9808448B2, “Pharmaceutical compounds and use of same in cancer and tauopathies” (THE REGENTS OF THE UNIVERSITY OF MICHIGAN, priority 2013, dated 2017).

These molecules were tested on MDA-MB-231 (assay: Cancer activity screen (MTT cell survival), MDA-MB-231). Conditions: Homo sapiens, second table.
Format: cell-based

Structure (SMILES) | IC50 [µM]
CCn1c(=O)/c(=C2\Sc3c(ccc(F)c3F)N2C)s/c1=C\c1scc[n+]1C | 5.6 ± 0.6
CCn1c(=O)/c(=C2\Sc3cc(F)ccc3N2C)s/c1=C\c1scc[n+]1Cc1ccccc1 | 0.15 ± 0.01
CCn1c(=O)/c(=C2\Sc3c(ccc(F)c3F)N2C)s/c1=C\c1cccc[n+]1Cc1cc(C)on1 | 3.72 ± 0.41
CCOC(=O)c1ccc(C[n+]2ccsc2/C=c2\s/c(=C3/Sc4cc(Cl)ccc4N3C)c(=O)n2CC)o1 | 0.72 ± 0.08
CCN1C(=O)/C(=C2\Sc3ccc(F)cc3N2C)S/C1=N\c1ccccc1 | 9.18 ± 1.04
CCn1c(=O)/c(=C2\Sc3cc(Cl)ccc3N2C)s/c1=C\c1scc[n+]1Cc1cccc(F)c1 | 1.01 ± 0.16
CN1/C(=c2\s/c(=C\c3scc[n+]3Cc3ccccc3)n(C3CC3)c2=O)Sc2cc(F)ccc21 | 0.76 ± 0.08
CCn1c(=O)/c(=C2\Sc3cc(C(F)(F)F)ccc3N2C)s/c1=C\c1nccs1 | 2.6 ± 0.5
CCn1c(=O)/c(=C2\Sc3c(ccc(F)c3F)N2C)s/c1=C\c1cccc[n+]1Cc1cc(-c2ccccc2)no1 | 1.33 ± 0.2
CCn1c(=O)/c(=C2\Sc3cc(OC(F)(F)F)ccc3N2C)s/c1=C\c1cccc[n+]1Cc1ccccc1 | 0.71 ± 0.12
COC(=O)Cn1c(=O)/c(=C2\Sc3c(F)cccc3N2C)s/c1=C\c1ccncc1 | > 20
CCn1c(=O)/c(=C2\Sc3ccc(Cl)cc3N2C)s/c1=C\c1scc[n+]1Cc1cc(C)on1 | 1.05 ± 0.09
COC(=O)CCn1c(=O)/c(=C2\Sc3cc(Cl)ccc3N2C)s/c1=C\c1ccccn1 | > 20
CN1/C(=c2\s/c(=C\c3ccncc3)n(CC(=O)O)c2=O)Sc2cc(F)ccc21 | > 20
CCn1c(=O)/c(=C2\Sc3cc(Cl)ccc3N2C)s/c1=C\c1scc[n+]1Cc1ccc([N+](=O)[O-])o1 | > 30
CCn1c(=O)/c(=C2\Sc3cc(C(F)(F)F)ccc3N2C)s/c1=C\c1cccc[n+]1CC | 2.7 ± 0.6
CCn1c(=O)/c(=C2\Sc3cc(F)ccc3N2C)s/c1=C\c1scc[n+]1Cc1ccsc1C(=O)OC | 0.14 ± 0.02
CCn1c(=O)/c(=C2\Sc3cc(Cl)ccc3N2C)s/c1=C\c1scc[n+]1Cc1csc(C)n1 | 0.74 ± 0.07
CCn1c(=O)/c(=C2\Sc3c(ccc(F)c3F)N2C)s/c1=C\c1cccc[n+]1Cc1ccsc1Br | 0.92 ± 0.17
COC(=O)Cn1c(=O)/c(=C2\Sc3ccc(F)cc3N2C)s/c1=C\c1ccncc1 | > 20
COC(=O)Cn1c(=O)/c(=C2\Sc3cc(F)ccc3N2C)s/c1=C\c1ccncc1 | 2 ± 0.2

Structure (SMILES) | IC50 [µM]
CCn1c(=O)/c(=C2\Sc3c(ccc(F)c3F)N2C)s/c1=C\c1cccc[n+]1Cc1ccccc1C(F)(F)F | 0.38 ± 0.07
CCn1c(=O)/c(=C2\Sc3ccc(Cl)cc3N2C)s/c1=C\c1scc[n+]1Cc1cc(-c2ccccc2)no1 | 0.5 ± 0.04
COC(=O)[C@@H](C)n1c(=O)/c(=C2\Sc3cc(F)ccc3N2C)s/c1=C\c1ccccn1 | > 20
CCn1c(=O)/c(=C2\Sc3cc(Cl)ccc3N2C)s/c1=C\c1scc[n+]1Cc1cc(C)on1 | 0.22 ± 0.02
CCn1c(=O)/c(=C2\Sc3ccc(Cl)cc3N2C)s/c1=C\c1scc[n+]1Cc1ccc(C(F)(F)F)o1 | 0.3 ± 0.02
CCn1c(=O)/c(=C2\Sc3cc(C(F)(F)F)ccc3N2C)s/c1=C\c1scc[n+]1CC | 4.2 ± 0.6
CCn1c(=O)/c(=C2\Sc3ccc(Cl)cc3N2C)s/c1=C\c1scc[n+]1Cc1ccsc1C(=O)OC | 0.16 ± 0.02
CCn1c(=O)/c(=C2\Sc3cc(F)ccc3N2C)s/c1=C\c1scc[n+]1Cc1ccc(C(=O)OC)o1 | 3.05 ± 0.42
CCn1c(=O)/c(=C2\Sc3c(ccc(F)c3F)N2C)s/c1=C\c1cccc[n+]1Cc1ccc(C(F)(F)F)o1 | 0.92 ± 0.1
CCn1c(=O)/c(=C2\Sc3cc(C(F)(F)F)ccc3N2C)s/c1=C\c1scc[n+]1Cc1ccccc1 | 0.36 ± 0.03
CCn1c(=O)/c(=C2\Sc3c(ccc(F)c3F)N2C)s/c1=C\c1cccc[n+]1Cc1ccsc1C(=O)OC | 1.95 ± 0.27
CCn1c(=O)/c(=C2\Sc3c(ccc(F)c3F)N2C)s/c1=C\c1scc[n+]1Cc1ccsc1Br | 0.48 ± 0.06
CCn1c(=O)/c(=C2\Sc3cc(Cl)ccc3N2C)s/c1=C\c1scc[n+]1Cc1ccsc1Br | 0.2 ± 0.02
CCn1c(=O)/c(=C2\Sc3cc(Cl)ccc3N2C)s/c1=C\c1scc[n+]1Cc1ccc(C(=O)OC)o1 | 0.97 ± 0.1
CCn1c(=O)/c(=C2\Sc3ccc(Cl)cc3N2C)s/c1=C\c1cccc[n+]1Cc1ccccc1 | 0.34 ± 0.03
CCn1c(=O)/c(=C2\Sc3ccc(Cl)cc3N2C)s/c1=C\c1scc[n+]1Cc1ccsc1 | 0.44 ± 0.05
CCn1c(=O)/c(=C2\Sc3c(C)cccc3N2C)s/c1=C\c1scc[n+]1Cc1ccccc1 | 0.25 ± 0.03
CCn1c(=O)/c(=C2\Sc3cc(Cl)ccc3N2C)s/c1=C\c1scc[n+]1Cc1ccsc1C(=O)OC | 0.076 ± 0.01
COC(=O)[C@@H](C)n1c(=O)/c(=C2\Sc3cc(F)ccc3N2C)s/c1=C\c1scc[n+]1Cc1ccccc1 | 1.2 ± 0.14
CCn1c(=O)/c(=C2\Sc3ccc(Cl)cc3N2C)s/c1=C\c1nccs1 | 1.5 ± 0.3
CCn1c(=O)/c(=C2\Sc3cc(Cl)ccc3N2C)s/c1=C\c1scc[n+]1Cc1cccc(C(F)(F)F)c1 | 0.4 ± 0.04

Structure (SMILES) | IC50 [µM]
CCn1c(=O)/c(=C2\Sc3cc(Cl)ccc3N2C)s/c1=C\c1scc[n+]1Cc1ccccc1C(F)(F)F | 0.13 ± 0.01
C=CCn1c(=O)/c(=C2\Sc3cccc(F)c3N2C)s/c1=C\c1ccncc1 | 0.38 ± 0.03
CCn1c(=O)/c(=C2\Sc3cc(C(F)(F)F)ccc3N2C)s/c1=C\c1ccncc1 | > 20
CCn1c(=O)/c(=C2\Sc3cc(OC(F)(F)F)ccc3N2C)s/c1=C\c1scc[n+]1Cc1ccc(C(F)(F)F)o1 | 0.51 ± 0.03
CCn1c(=O)/c(=C2\Sc3cc(Cl)ccc3N2C)s/c1=C\c1scc[n+]1Cc1ccc(C(F)(F)F)cc1 | 1.2 ± 0.15
CCn1c(=O)/c(=C2\Sc3cc(Cl)ccc3N2C)s/c1=C\c1scc[n+]1Cc1cc(-c2ccccc2)no1 | 0.17 ± 0.01
CCn1c(=O)/c(=C2\Sc3ccc(C)cc3N2C)s/c1=C\c1scc[n+]1Cc1ccccc1 | 0.078 ± 0.01
COC(=O)Cn1c(=O)/c(=C2\Sc3cc(F)ccc3N2C)s/c1=C\c1ccccn1 | > 20
COC(=O)CCn1c(=O)/c(=C2\Sc3cc(F)ccc3N2C)s/c1=C\c1scc[n+]1Cc1ccccc1 | 0.96 ± 0.07
CCn1c(=O)/c(=C2\Sc3cc(Cl)ccc3N2C)s/c1=C\c1nccs1 | 2.3 ± 0.6
CCn1c(=O)/c(=C2\Sc3c(ccc(F)c3F)N2C)s/c1=C\c1scc[n+]1Cc1cc(C)on1 | 1.33 ± 0.11
CCn1c(=O)/c(=C2\Sc3cc(Cl)ccc3N2C)s/c1=C\c1scc[n+]1C(C)C(=O)c1ccccc1 (stereo not drawn) | 0.34 ± 0.03
CCn1c(=O)/c(=C2\Sc3c(ccc(F)c3F)N2C)s/c1=C\c1scc[n+]1Cc1ccsc1C(=O)OC | 0.21 ± 0.03
CCn1c(=O)/c(=C2\Sc3cccc(C)c3N2C)s/c1=C\c1scc[n+]1Cc1ccccc1 | 0.21 ± 0.04
CCn1c(=O)/c(=C2\Sc3c(ccc(F)c3F)N2C)s/c1=C\c1cccc[n+]1Cc1ccsc1 | 2.09 ± 0.31
COC(=O)Cn1c(=O)/c(=C2\Sc3cc(F)ccc3N2C)s/c1=C\c1scc[n+]1Cc1ccccc1 | 2.9 ± 0.3
CCn1c(=O)/c(=C2\Sc3c(ccc(F)c3F)N2C)s/c1=C\c1nccs1 | 11.7 ± 2.3
CCn1c(=O)/c(=C2\Sc3cc(Cl)ccc3N2C)s/c1=C\c1scc[n+]1Cc1cccnc1Br | 1.6 ± 0.2
CN1/C(=c2\s/c(=C\c3scc[n+]3Cc3ccccc3)n(C3CC3)c2=O)Sc2cc(Cl)ccc21 | 0.56 ± 0.08
COC(=O)Cn1c(=O)/c(=C2\Sc3cc(Cl)ccc3N2C)s/c1=C\c1scc[n+]1Cc1ccccc1 | > 20
COC(=O)Cn1c(=O)/c(=C2\Sc3ccc(F)cc3N2C)s/c1=C\c1ccccn1 | > 20
